In patent publication US12448383B2, “Compounds and methods for treatment of viral infections” (priority 2022, dated 2025):
Read-outs that look alike come from different tables or passages of the source.

Columns and labels:
[1] = system: Respiratory syncytial virus recombinant with luciferase (RSV-Luc5) in HEp-2 cells; experiment: microbe, parasite or virus in culture; assay type: cell-based; details: human respiratory syncytial virus, HEp-2, 72 h, read-out: RSV Hep2 EC50
[2] = system: SARS Coronavirus 2 recombinant with NanoLuc (SARS-CoV2-NLuc) in A549-hACE2 cells; experiment: organism not typed; assay type: cell-based
[3] = system: Respiratory syncytial virus recombinant with luciferase (RSV-Luc5) in Normal Human Bronchial Epithelial (NHBE) cells; experiment: microbe, parasite or virus in culture; assay type: cell-based
[4] = CC50 MT4 cytotoxicity (Cell-Titer Glo); assay type: cell-based; details: human
In short: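 CC50 values are the concentrations cutting viability by 50%, fitted by non-linear regression against untreated (100%) and 2 μM puromycin (0%) controls. Cell-Titer Glo luminescence measured after 4-5 days at 37° C exposure of uninfected MT-4 and HEp-2 cells to 3-fold dilutions spanning 15 nM to 100,000 nM.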

[5] = system: Caco-2 cells (clone C2BBe1); experiment: CACO-2 permeability; assay type: in vitro ADME; set-up: unit not given here; details: for DM Caco2 A to B: apical to basolateral, donor pH 6.5, receiver pH 7.4; for DM Caco2 B to A: basolateral to apical
In short: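 A-to-B and B-to-A flux measured by LC-MS/MS from receiver samples taken at 1 and 2 h, with donor sampled at 0 and 2 h and recovery checked. Buffers: pH 6.5 HBSS with 200 μM BNPP on the donor side, pH 7.4 with BSA on the receiver side. Monolayers were 21-day cultures, TEER-verified, in duplicate wells.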

[6] = Stability in pH2 buffered solution; assay type: physicochemical; details: pH2 phosphate buffer, 40° C., 24 h; Table N2
Description: (§1) Example N: Stability in p112 and p117 Buffered Solutions
(§2) The aqueous stability of compounds over a time of 24 hours at 40° C. was assessed. Stability was determined in 50 mM phosphate buffered solutions at both pH2 and pH7, with 150 mM NaCl (to achieve isotonicity). 3-5 mg of solid compounds were added to 7 mL scintillation vials. Acetonitrile was added to each vial to produce a 1 mg/mL stock solution. Stock solutions were diluted to 50 μg/mL in either pH2 or pH7 phosphate buffer, to a volume of 1 mL. For each compound and pH condition, 50 μg/mL samples were prepped in duplicate. One sample was placed on the UPLC tray at 40° C. for analysis, and the second sample was placed in a 40° C. oven for storage. Sample preps for each compound were offset by 40 minutes to account for run time on UPLC.
(§3) Concentration timepoints were measured at 0, 3, 6, 9, and 12 hrs. After 24 hrs, samples in the 40° C. oven were removed and analyzed by UPLC.
(§4) In FIG. 2, % AN stands for % area normalized. That is, % AN is the area of the compound peak relative to the sum of areas of all the peaks in the UPLC chromatogram. For example, if there were two peaks, compound peak with an area of 9 and another peak with an area of 1, then the % AN of the compound peak would be 90%.

[7] = Stability in pH7 buffered solution; assay type: physicochemical; details: pH7 phosphate buffer, 40° C., Table N2
Description: as §1, §2, §3, §4

[8] = GI S9 stability - no PMSF; assay type: in vitro ADME; set-up: GIS9-HUMAN-NoPMSF T1/2: unit: min; details: human intestinal S9, PMSF-free; for half-life at 2 µM: pH 7.4, read-out: GIS9-HUMAN-NoPMSF T1/2
In short: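 Stability was assessed by Q-Exactive LC-MS peak area ratios against internal standard, tracking loss of parent and appearance of nucleoside metabolite Reference Compound A. Incubations used 2 μM compound in 1 mg/mL intestinal S9 without PMSF (PBS, pH 7.4), with six samples taken over 120 min.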

Plasma stability = assay type: in vitro ADME; set-up: unit not given here; details: 37° C., 2 μM substrate
In short: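 LC-MS (Q-Exactive, 5 ppm tolerance, 0.1% formic acid water/acetonitrile gradient) quantified compound in quenched aliquots. Aliquots were taken at 0.05, 0.5, 1, 2, 3 and 4 hr and quenched with internal-standard solution, and supernatants were diluted with water after centrifugation.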

[9] = Thermodynamic solubility in pH7 buffered solution; details: 50 mM phosphate buffer pH7, 150 mM NaCl, ambient temperature, 24 hours
Description: Solubility was determined at ambient temperature in a 50 mM phosphate buffered pH7 solution with 150 mM NaCl (to achieve isotonicity). Solids were added to the buffered solution in 1.5-mL Eppendorf tubes, vortexed for 1 minute, then agitated for 24 hours in an Eppendorf ThermoMixer C. […] Supernatants were diluted to a volume of 1 mL with 30:70 v/v acetonitrile:water. All diluted supernatants were analyzed by UPLC using a Waters Acquity UPLC with a PDA UV detector.

SMILES	EC50 [1] [µM]	EC50 ([2]; 48 h, read-out: SARS-CoV2 EC50) [µM]	EC50 ([3]; 72 h, read-out: RSV NHBE EC50) [µM]	CC50 [4] [µM]	DM Caco2 A to B [5]	DM Caco2 B to A [5]	pH 2 Stability 24 h % AN [6] [% AN]	pH 7 Stability 24 h % AN [7] [% AN]	half-life at 2 µM [8] [min]	STA Human Plasma 37 (Plasma stability)	Sol pH 7 [9]	GIS9-HUMAN-NoPMSF T1/2 [8]	EC50 ([2]; A549, read-out: EC50 SARS CoV2 NanoLuc A549 384) [µM]	EC50 ([3]; read-out: EC50 RSVFluc-NHBE 384 V2) [µM]	logD (physchem)
CCCC(=O)Nc1ncnn2c([C@]3(C#N)O[C@H](COC(=O)OCC(C)C)[C@@H](O)[C@H]3O)ccc12 [Compound 21, [(2R,3S,4R,5R)-5-[4-(butanoylamino)pyrrolo[2,1-f][1,2,4]triazin-7-yl]-5-cyano-3,4-dihydroxy-tetrahydrofuran-2-yl]methyl isobutyl carbonate]	2.38	12.9	2.25	> 50	1.36	8.33	0	92	–	–	–	–	–	–	–
CC(C)OC(=O)Nc1ncnn2c([C@]3(C#N)O[C@H](COC(=O)OC(C)(C)C)[C@@H](O)[C@H]3O)ccc12 [Compound 63, isopropyl (7-((2R,3R,4S,5R)-5-(((tert-butoxycarbonyl)oxy)methyl)-2-cyano-3,4-dihydroxytetrahydrofuran-2-yl)pyrrolo[2,1-f][1,2,4]triazin-4-yl)carbamate]	–	> 50	41.6	> 50	1.18	12.46	3	0	181	1584	0.82	–	–	–	–
CC(C)OC(=O)OC[C@H]1O[C@@](C#N)(c2ccc3c(N)ncnn23)[C@@H]2OC(=O)O[C@@H]21 [Compound 66, ((3aR,4R,6R,6aR)-6-(4-aminopyrrolo[2,1-f][1,2,4]triazin-7-yl)-6-cyano-2-oxotetrahydrofuro[3,4-d][1,3]dioxol-4-yl)methyl isopropyl carbonate]	0.847	3.21	0.499	> 50	–	–	2	0	0.491	24.2	–	–	–	–	–
CC(C)(OC(=O)OC[C@H]1O[C@@](C#N)(c2ccc3c(N)ncnn23)[C@H](O)[C@@H]1O)C(F)(F)F [Compound 67, ((2R,3S,4R,5R)-5-(4-aminopyrrolo[2,1-f][1,2,4]triazin-7-yl)-5-cyano-3,4-dihydroxytetrahydrofuran-2-yl)methyl (1,1,1-trifluoro-2-methylpropan-2-yl) carbonate]	–	12.8	1.52	> 50	0.99	9.76	95	91	10.5	1177.1	–	–	–	–	–
CC(C)(OC(=O)OC[C@H]1O[C@@](C#N)(c2ccc3c(N)ncnn23)[C@H](O)[C@@H]1O)C(F)F [Compound 76, ((2R,3S,4R,5R)-5-(4-aminopyrrolo[2,1-f][1,2,4]triazin-7-yl)-5-cyano-3,4-dihydroxytetrahydrofuran-2-yl)methyl (1,1-difluoro-2-methylpropan-2-yl) carbonate]	–	> 50	3.4	> 50	2.13	12.17	92	91	38.9	1584	0.37	–	–	–	–
CCOC(=O)C(C)(C)OC(=O)OC[C@H]1O[C@@](C#N)(c2ccc3c(N)ncnn23)[C@H](O)[C@@H]1O [Compound 77, Ethyl 2-(((((2R,3S,4R,5R)-5-(4-aminopyrrolo[2,1-f][1,2,4]triazin-7-yl)-5-cyano-3,4-dihydroxytetrahydrofuran-2-yl)methoxy)carbonyl)oxy)-2-methyl propanoate]	–	> 50	≥ 50	> 50	0.27	5.58	98	95	792	383.67	4.64	–	–	–	–
COC(=O)[C@H]([C@@H](C)OC(=O)OC[C@H]1O[C@@](C#N)(c2ccc3c(N)ncnn23)[C@H](O)[C@@H]1O)N(C)C [Compound 78, methyl O-((((2R,3S,4R,5R)-5-(4-aminopyrrolo[2,1-f][1,2,4]triazin-7-yl)-5-cyano-3,4-dihydroxytetrahydrofuran-2-yl)methoxy)carbonyl)-N,N-dimethyl-L-threoninate]	–	3.58	3.6	> 50	0.2	4.2	90	0	72.1	336.23	0.89	–	–	–	–
COCC(C)(C)OC(=O)OC[C@H]1O[C@@](C#N)(c2ccc3c(N)ncnn23)[C@H](O)[C@@H]1O [Compound 96, ((2R,3S,4R,5R)-5-(4-aminopyrrolo[2,1-f][1,2,4]triazin-7-yl)-5-cyano-3,4-dihydroxytetrahydrofuran-2-yl)methyl (1-methoxy-2-methylpropan-2-yl) carbonate]	–	–	> 50	> 50	0.09	4.05	96	95	–	1584	1.25	789	–	–	–
CCOC(=O)[C@H](C)OC(=O)OC[C@H]1O[C@@](C#N)(c2ccc3c(N)ncnn23)[C@H](O)[C@@H]1O [Compound 97, ethyl (S)-2-(((((2R,3S,4R,5R)-5-(4-aminopyrrolo[2,1-f][1,2,4]triazin-7-yl)-5-cyano-3,4-dihydroxytetrahydrofuran-2-yl)methoxy)carbonyl)oxy)propanoate]	–	–	6.16	–	0.04	2.15	98	85	3.65	6.669	6.02	–	–	–	–
CC(C)OC(=O)[C@H]([C@@H](C)OC(=O)OC[C@H]1O[C@@](C#N)(c2ccc3c(N)ncnn23)[C@H](O)[C@@H]1O)N(C)C [Compound 145, isopropyl (2S,3R)-3-[[(2R,3S,4R,5R)-5-(4-aminopyrrolo[2,1-f][1,2,4]triazin-7-yl)-5-cyano-3,4-dihydroxy-tetrahydrofuran-2-yl]methoxycarbonyloxy]-2-(dimethylamino)butanoate]	–	–	–	> 50	0.2	8.475	93	0	32.8	299.49	–	–	3.48	3.15	1.85
